The source of these data is paper PMC8400257, “2-Phenoxy-3-Trichloromethylquinoxalines Are Antiplasmodial Derivatives with Activity against the Apicoplast of Plasmodium falciparum” (Pharmaceuticals, 2021).

Like-named read-outs stand apart in the source and are kept apart here.

Data set [1] has as its system K1 chloroquine and pyrimethamine-resistant P. falciparum strain. Put plainly: In vitro antiplasmodial evaluation (SYBR Green I). The conditions noted are these: for EC50: read-out: EC50 PfK1 (µM) ± SD; for SI (selectivity index): SI = CC50 HepG2/EC50 PfK1. Format: cell-based, Plasmodium falciparum. The procedure: (§1) For all molecules, the selectivity index was calculated as following SI = CC50/EC50.
It was maintained in continuous culture, as described previously by Trager and Jensen. Cultures were maintained in fresh A+ human erythrocytes at 2.5% hematocrit in complete medium (RPMI 1640 with 25 mM HEPES, 25 mM NaHCO3, 10% of A+ human serum) at 37 °C under reduced O2 atmosphere (gas mixture 10% O2, 5% CO2, and 85% N2). Parasitemia was maintained daily between 1 and 3%. The P. falciparum drug susceptibility test was carried out by comparing quantities of DNA in treated and control cultures of parasite in human erythrocytes according to an SYBR Green I fluorescence-based method using a 96-well fluorescence plate reader. Compounds, previously dissolved in DMSO (final concentration less than 0.5% v/v), were incubated in a total assay volume of 200 μL (RPMI, 2% hematocrit and 0.4% parasitemia) for 72 h in a humidified atmosphere (10% O2 and 5% CO2) at 37 °C, in 96-well flat bottom plates. Duplicate assays were performed for each sample. After incubation, plates were frozen at […] for 24 h. Then, the frozen plates were thawed for 1 h at 37 °C. Fifteen µL of each sample were transferred to 96-well flat bottom non-sterile black plates (Greiner Bio-one, Kremsmünster, Austria), already containing 15 µL of the SYBR Green I lysis buffer (2X SYBR Green I, 20 mM Tris base pH 7.5, 20 mM EDTA, 0.008% w/v saponin, 0.08% w/v Triton X-100). […] Plates were incubated for 15 min at 37 °C and then read on a TECAN Infinite F-200 spectrophotometer with excitation and emission wavelengths at 485 and 535 nm, respectively.

Data set [2] in a line: In vitro cytotoxicity evaluation HepG2 (MTT). Format: cell-based, human. The conditions noted are these: human, CC50 HepG2 (µM) ± SD. The procedure:
as §1
Triplicate assays were performed for each sample. Each plate-well was then microscopically examined for possible precipitate formation before the medium was aspirated from the wells. Next, 100 µL of MTT (3-(4,5-dimethyl-2-thiazolyl)-2,5-diphenyl -2H-tetrazolium bromide) solution (0.5 mg/mL in medium without FBS) was added to each well. […] After this time, the MTT solution was removed and DMSO (100 μL) was added to dissolve the resulting blue formazan crystals. Plates were shaken vigorously (700 rpm) for 10 min. The absorbance was measured at 570 nm with 630 nm as reference wavelength using a BIO-TEK ELx808 Absorbance Microplate Reader (LabX, Midland, ON, Canada). DMSO was used as blank and doxorubicin (purchased from Sigma Aldrich) as positive control. Cell viability was calculated as a percentage of control (cells incubated without compound). […] CC50 values to represent the mean value calculated from three independent experiments.

Data set [3] can be described thus: Aqueous solubility in the cell culture medium. The data set is classed as physicochemical. The protocol:
It appeared that the cluttered derivatives (3q, 3s) and the 2-chlorophenoxy derivative (3b) were the less cytotoxic compounds.
The HepG2 cell line was maintained at 37 °C, 5% CO2, at 90% humidity in MEM supplemented with 10% fetal bovine serum, 1% L-glutamine (200 mM), and penicillin (100 U/mL)/streptomycin (100 μg/mL) (complete RPMI medium). The cytotoxicity of the tested molecules on the HepG2 (hepatocarcinoma cell line purchased from ATCC, ref HB-8065) cell line was assessed according to the method of Mosmann with slight modifications. Briefly, 5.10^3 cells in 100 μL of complete medium were inoculated into each well of 96-well plates and incubated at 37 °C in humidified 5% CO2. After 24 h incubation, 100 μL of medium with various product concentrations dissolved in DMSO (final concentration less than 0.5% v/v) were added and the plates were incubated for 72 h at 37 °C. Triplicate assays were performed for each sample. Each plate-well was then microscopically examined for possible precipitate formation before the medium was aspirated from the wells. Next, 100 µL of MTT (3-(4,5-dimethyl-2-thiazolyl)-2,5-diphenyl -2H-tetrazolium bromide) solution (0.5 mg/mL in medium without FBS) was added to each well. Cells were incubated for 2 h at 37 °C. After this time, the MTT solution was removed and DMSO (100 μL) was added to dissolve the resulting blue formazan crystals. Plates were shaken vigorously (700 rpm) for 10 min. The absorbance was measured at 570 nm with 630 nm as reference wavelength using a BIO-TEK ELx808 Absorbance Microplate Reader (LabX, Midland, ON, Canada). DMSO was used as blank and doxorubicin (purchased from Sigma Aldrich) as positive control. Cell viability was calculated as a percentage of control (cells incubated without compound). […] CC50 values to represent the mean value calculated from three independent experiments.

[4] abbreviates: Plasmodium falciparum, K1, 72 h, K1 strain, 72 h incubation, three independent experiments.
Where [5] appears, read: K1 strain, 72 h incubation, three independent experiments.

In the case of `CCN(CC)CCCC(C)Nc1ccnc2cc(Cl)ccc12` (stereo not shown) [Chloroquine, reference compound], in data set [1] (Plasmodium falciparum, K1, 72 h), the EC50 was 0.8 µM.
Regarding `Fc1ccccc1Oc1nc2ccccc2nc1C(Cl)(Cl)Cl` [3e, 2-(2-Fluorophenoxy)-3-trichloromethylquinoxaline], the melting point came out at 138 °C. In addition, the EC50 in data set [1] (setting [4]) was 0.64 ± 0.14 µM. Besides, the “SI (selectivity index)” value in data set [1] is given as greater than 24.4. This compound gave a CC50 at 72 h in data set [2] greater than 15.6 µM. For the same compound, the “Aqueous solubility in the cell culture medium” value (shortened to “Aqueous solubility”) in data set [3] is “poor aqueous solubility”.
For the compound `COc1cccc2c1C(=O)c1c(O)c3c(c(O)c1C2=O)C[C@@](O)(C(=O)CO)C[C@@H]3O[C@H]1C[C@H](N)[C@H](O)[C@H](C)O1` [Doxorubicin, reference compound], the CC50 at 72 h in data set [2] is 0.2 µM.
Take `Clc1ccccc1Oc1nc2ccccc2nc1C(Cl)(Cl)Cl` [3b, 2-(2-Chlorophenoxy)-3-trichloromethylquinoxaline]: the melting point worked out at 99 °C. Also, the EC50 in data set [1] (setting [4]) amounted to 0.55 ± 0.12 µM. Besides, the “SI (selectivity index)” value in data set [1] was determined as 90.0. The midpoint of cytotoxicity in data set [2], the CC50 at 72 h, lay at 49.5 ± 10.1 µM.
`O=[N+]([O-])c1ccc(Oc2nc3ccccc3nc2C(F)(F)F)cc1` [3v, 2-(4-Nitrophenoxy)-3-trifluoromethylquinoxaline] registered a melting point of 125 °C. For the same compound, the EC50 in data set [1] (setting [5]) was greater than 16 µM. Further, the EC50 in data set [1] (setting [4]) was greater than 25 µM.
Take `ClC(Cl)(Cl)c1nc2ccccc2nc1Oc1ccccc1` [3a, 2-Phenoxy-3-trichloromethylquinoxaline]: the melting point was 59 °C. Moreover, in data set [1] (setting [4]), the EC50 stood at 0.47 ± 0.1 µM. Further, in data set [1], the “SI (selectivity index)” value was 96.4. This compound also registered a CC50 at 72 h in data set [2] of 45.3 ± 9.6 µM.
In turn, `ClC(Cl)(Cl)c1nc2ccccc2nc1Oc1ccc(-c2ccccc2)cc1` [3s, 2-([1,1′-Biphenyl]-4-yloxy)-3-trichloromethylquinoxaline] gave a melting point of 160 °C. The EC50 in data set [1] (setting [4]) amounted to 0.6 ± 0.1 µM. Also, the “SI (selectivity index)” value in data set [1] is listed as greater than 104.2. The CC50 at 72 h in data set [2] was greater than 62.5 µM. The “Aqueous solubility” value in data set [3] is given as “poor aqueous solubility”.
`O=[N+]([O-])c1ccc(Oc2cnc3ccccc3n2)cc1` [3u, 2-(4-Nitrophenoxy)quinoxaline] returned a melting point of 156 °C. The EC50 in data set [1] (setting [5]) was greater than 16 µM. Moreover, the EC50 in data set [1] (setting [4]) was greater than 25 µM.
Take `O=[N+]([O-])c1ccc(Oc2nc3ccccc3nc2C(Cl)Cl)cc1` [3w, 2-Dichloromethyl-3-(4-nitrophenoxy)quinoxaline]: the melting point was 112 °C. Further, the EC50 in data set [1] (setting [4]) is greater than 16 µM.
`O=S(=O)(c1ccc(Oc2nc3ccccc3nc2C(Cl)(Cl)Cl)cc1)C(F)(F)F` [3o, 2-Trichloromethyl-3-[4-(trifluoromethylsulfonyl)phenoxy]quinoxaline] came in with a melting point of 107 °C. For the same compound, in data set [1] (setting [4]), the EC50 was 0.22 ± 0.07 µM. Besides, the “SI (selectivity index)” value in data set [1] was 32.7. In addition, half-maximal cytotoxicity in data set [2] (CC50 at 72 h) was put at 7.2 ± 1.4 µM.
For the compound `Fc1ccc(Oc2nc3ccccc3nc2C(Cl)(Cl)Cl)cc1` [3g, 2-(4-Fluorophenoxy)-3-trichloromethylquinoxaline], the melting point amounted to 56 °C. Further, in data set [1] (setting [4]), the 50% effective concentration (EC50) came out at 0.42 ± 0.09 µM. Further, the “SI (selectivity index)” value in data set [1] worked out at 85.5. This compound gave a CC50 at 72 h in data set [2] of 35.9 ± 7.5 µM.
For `ClC(Cl)(Cl)c1nc2ccccc2nc1Oc1cccc(-c2ccccc2)c1` [3t, 2-([1,1′-Biphenyl]-3-yloxy)-3-trichloromethylquinoxaline], in data set [1] (setting [4]), the EC50 was 0.5 ± 0.05 µM. In data set [1], the “SI (selectivity index)” value is recorded as greater than 62.5. In addition, in data set [2], the CC50 at 72 h is greater than 31.2 µM. Further, the “Aqueous solubility” value in data set [3] is “poor aqueous solubility”.
`FC(F)(F)c1ccc(Oc2nc3ccccc3nc2C(Cl)(Cl)Cl)cc1` [3j, 2-Trichloromethyl-3-[4-(trifluoromethyl)phenoxy]quinoxaline] had a melting point of 129 °C. Moreover, in data set [1] (setting [4]), the EC50 was 0.3 ± 0.06 µM. Besides, the “SI (selectivity index)” value in data set [1] was 94.3. The compound also registered a CC50 at 72 h in data set [2] of 28.3 ± 4.4 µM.
The like results for `FC(F)(F)Sc1ccc(Oc2nc3ccccc3nc2C(Cl)(Cl)Cl)cc1` [3m, 2-Trichloromethyl-3-[4-(trifluoromethylthio)phenoxy]quinoxaline] were, in that order, 94 °C, 0.2 ± 0.04 µM, 128.0 and 25.6 ± 4.6 µM.
For the compound `C[C@H]1c2cccc(O)c2C(=O)C2=C(O)[C@]3(O)C(=O)C(C(N)=O)=C(O)[C@@H](N(C)C)[C@@H]3[C@@H](O)[C@@H]21` [Doxycycline, reference compound], the 50% effective concentration (EC50) in data set [1] (setting [4]) was found to be 6 µM. Further, the “SI (selectivity index)” value in data set [1] is recorded as 3.3. In data set [2], this compound showed a CC50 at 72 h of 20 µM.
Regarding `C[C@H]1[C@H](OC(=O)CCC(=O)O)O[C@@H]2O[C@@]3(C)CC[C@H]4[C@H](C)CC[C@@H]1[C@@]24OO3` [Artesunate, reference compound], the EC50 in data set [1] (setting [4]) was 0.003 ± 0.0012 µM. Moreover, in data set [1], the “SI (selectivity index)” value stood at 4900. The same compound came in with a CC50 at 72 h in data set [2] of 14.7 ± 1.4 µM.
For `Clc1ccc(Oc2nc3ccccc3nc2C(Cl)(Cl)Cl)c(Cl)c1` [3d, 2-(2,4-Dichlorophenoxy)-3-trichloromethylquinoxaline], the melting point came out at 120 °C. For the same compound, in data set [1] (setting [4]), the EC50 was found to be 0.6 ± 0.12 µM. In addition, the “SI (selectivity index)” value in data set [1] is on record as 62.8. This compound also returned a CC50 at 72 h in data set [2] of 37.7 ± 4.7 µM.
In the case of `FC(F)(F)Oc1ccc(Oc2nc3ccccc3nc2C(Cl)(Cl)Cl)cc1` [3k, 2-Trichloromethyl-3-[4-(trifluoromethoxy)phenoxy]quinoxaline], the melting point came out at 66 °C. The EC50 in data set [1] (setting [4]) stood at 0.4 ± 0.08 µM. The “SI (selectivity index)” value in data set [1] turned out to be 67.8. In data set [2], this compound had a CC50 at 72 h of 27.1 ± 4.7 µM.
`COc1ccc(Oc2nc3ccccc3nc2C(Cl)(Cl)Cl)cc1` [3h, 2-(4-Methoxyphenoxy)-3-trichloromethylquinoxaline] had a melting point of 171 °C. The EC50 in data set [1] (setting [4]) was 0.38 ± 0.08 µM. Besides, the “SI (selectivity index)” value in data set [1] was greater than 20.6. This compound yielded a CC50 at 72 h in data set [2] greater than 7.8 µM. The “Aqueous solubility” value in data set [3] is listed as “poor aqueous solubility”.
Compound `N=S(=O)(c1ccc(Oc2nc3ccccc3nc2C(Cl)(Cl)Cl)cc1)C(F)(F)F` (stereo not shown) [3p, 2-Trichloromethyl-3-[4-(S-trifluoromethylsulfonimidoyl)phenoxy]quinoxaline] had a melting point of 127 °C. In addition, the EC50 in data set [1] (setting [4]) came out at 0.21 ± 0.05 µM. In addition, the “SI (selectivity index)” value in data set [1] is on record as 31.0. This compound also registered a CC50 at 72 h in data set [2] of 6.5 ± 1.4 µM.
`Fc1cccc(Oc2nc3ccccc3nc2C(Cl)(Cl)Cl)c1` [3f, 2-(3-Fluorophenoxy)-3-trichloromethylquinoxaline] displayed a melting point of 101 °C. Further, the EC50 in data set [1] (setting [4]) was 0.32 ± 0.07 µM. Besides, the “SI (selectivity index)” value in data set [1] is listed as 105.0. In addition, half-maximal cytotoxicity in data set [2] (CC50 at 72 h) was put at 33.5 ± 6.3 µM.
Taken in the same sequence, the figures for `Clc1cccc(Oc2nc3ccccc3nc2C(Cl)(Cl)Cl)c1` [3c] were 58 °C, 0.34 ± 0.06 µM, 109.4 and 37.2 ± 8.1 µM.
